Test results reported in PubChem BioAssay (NCI).
“And” between values parts separate entries of the source, which are not always exact repeats. Equal entries are not always repeated.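 Assay format: 96-well plates, 48-hour exposure. GI50 marks 50% less growth. TGI: concentration producing complete growth inhibition.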

Columns and labels:
Assay in all cases: DTP human tumour cell line panel, 48 h
UACC-62 melanoma = test system: UACC-62 melanoma
NCI-H522 lung = test system: NCI-H522 lung
LOX IMVI melanoma = test system: LOX IMVI melanoma
HL-60(TB) leukemia = test system: HL-60(TB) leukemia
MOLT-4 leukemia = test system: MOLT-4 leukemia
HOP-92 NSCLC = test system: HOP-92 NSCLC
HT29 colon = test system: HT29 colon
ACHN renal = test system: ACHN renal
SW-620 colon = test system: SW-620 colon
NCI-H226 lung = test system: NCI-H226 lung

Row | SMILES | GI50 (UACC-62 melanoma) [µM] | TGI (UACC-62 melanoma) | GI50 (NCI-H522 lung) [µM] | TGI (NCI-H522 lung) | GI50 (LOX IMVI melanoma) [µM] | TGI (LOX IMVI melanoma) | GI50 (HL-60(TB) leukemia) [µM] | TGI (HL-60(TB) leukemia) | GI50 (MOLT-4 leukemia) [µM] | TGI (MOLT-4 leukemia) | GI50 (HOP-92 NSCLC) | TGI (HOP-92 NSCLC) | GI50 (HT29 colon) [µM] | TGI (HT29 colon) | GI50 (ACHN renal) | TGI (ACHN renal) | GI50 (SW-620 colon) [µM] | TGI (SW-620 colon) | GI50 (NCI-H226 lung) | TGI (NCI-H226 lung)
1 | CC(=O)O[C@@H]1C2=C(C)C3(CC3)[C@@](C)(O)C(=O)C2=C[C@@]1(C)CO | 1.71 | 3.59 µM | 0.496 | 4.44 µM | 1.04 | 4.44 µM | 0.414 | > 22.5 µM | 1.53 | > 100 µM | 1.87 µM | 5.75 µM | 0.322 | > 100 µM | 0.484 µM | 2.33 µM | 0.355 | > 100 µM | 2.12 µM | 5.22 µM
2 | c1cc(C2CCCCC2)ccc1-c1cnc2nonc2n1 | 0.393 | 1.96 µM | 0.548 | 2.56 µM | 0.527 | 1.74 µM | 0.318 | 1.52 µM | 0.393 | > 56.5 µM | 0.422 µM | 2.12 µM | 0.603 | 3.27 µM | 1.14 µM | 2.39 µM | 0.502 | 2.45 µM | 1.75 µM | 4.22 µM
3 | COC(=O)c1ccc(NC(=O)c2ccc(NC3=C(Cl)C(=O)N(Cc4ccccc4)C3=O)cc2)cc1 | 18.7 | 37.1 µM | 13.1 | 33.1 µM | 13.3 | 26 µM | 12.8 | 25.4 µM | 13 | 25.6 µM | 12.8 µM | 25.4 µM | 22.5 | 51.2 µM | 17.2 µM | 31 µM | 15.1 | 33 µM | 22 µM | 40.6 µM
4 | O=C(COC(=O)c1cccc2c(=O)c3ccccc3[nH]c12)Nc1ccc(Cl)cc1 | – | > 100 µM | – | > 100 µM | – | > 100 µM | – | > 100 µM | – | > 100 µM | – | > 100 µM | – | > 100 µM | – | > 100 µM | – | > 100 µM | – | > 100 µM
5 | CC(C)N1C(C)[C@@H](c2ccccc2)O[P@@]1(=O)CC1=CCCCC1 (stereo partly specified) | – | > 100 µM | – | > 100 µM | – | > 100 µM | – | 63.7 µM | – | > 100 µM | – | > 100 µM | – | > 100 µM | – | > 100 µM | – | > 100 µM | – | > 100 µM
6 | O=C(NCCCl)Nc1ccccc1 | – | > 100 µM | – | > 100 µM | – | > 100 µM | – | > 100 µM | – | > 100 µM | – | > 100 µM | – | > 100 µM | – | > 100 µM | – | > 100 µM | – | > 100 µM
7 | CCOC(=O)/C(C#N)=C\Sc1ccccc1 | – | 42.3 µM | – | 11.3 µM | – | 21.4 µM | – | 45.6 µM | – | 67.3 µM | – | > 100 µM | – | 84.4 µM | – | 47.1 µM | – | 72.6 µM | – | 43 µM
8 | CCN(CC)S(=O)(=O)c1cccc(-c2ccc3c(NC(=O)C4CC4)n[nH]c3c2)c1 | 2.28 | > 6.25 µM | 1.08 | > 6.25 µM | 2.44 | > 6.25 µM | 2.17 | > 6.25 µM | 1.75 | > 6.25 µM | 2.58 µM | > 6.25 µM | 2.3 | > 6.25 µM | 3.54 µM | > 6.25 µM | 2.27 | > 6.25 µM | 3.78 µM | > 6.25 µM
9 | COC(=O)c1ccc(C(=O)OC)c2nc3cc(Cl)ccc3nc12 | – | > 100 µM | – | > 100 µM | – | > 100 µM | – | > 100 µM | – | > 100 µM | – | > 100 µM | – | > 100 µM | – | > 100 µM | – | > 100 µM | – | > 100 µM
10 | CCC[CH2][Sn]([CH2]CCC)([O]C(=O)c1cc(F)ccc1F)[O]C(=O)c1cc(F)ccc1F | 1.36 | 2.65 µM | 0.108 | 0.23 µM | 0.581 | 1.85 µM | 0.506 | 3.09 µM | 0.347 | 2.01 µM | 1.26 µM | 2.52 µM | 1.68 | 3.17 µM | 1.4 µM | 2.7 µM | 0.619 | 1.91 µM | 1.56 µM | 2.92 µM
11 | Cc1ccc(-c2c3c(nn2-c2ccc(S(=O)(=O)NC(=O)NC4CCCCC4)cc2)-c2ccccc2C3)cc1 | 16.9 | 32.2 µM | 12 | 28.9 µM | 1.82 | 3.73 µM | 5.17 | 21.4 µM | 1.86 | 6.14 µM | 2.65 µM | 15.8 µM | 24.3 | > 100 µM | 14.6 µM | 29.5 µM | 2.65 | 6.31 µM | 20.4 µM | 47.3 µM
12 | Cn1cc(C2=C(c3cc[nH]c3)C(=O)NC2=O)c2ccccc21 | > 25 | > 25 µM | 24.3 | > 25 µM | > 25 | > 25 µM | > 25 | > 25 µM | > 25 | > 25 µM | > 25 µM | > 25 µM | > 25 | > 25 µM | > 25 µM | > 25 µM | > 25 | > 25 µM | 15.5 µM | > 25 µM
13 | CC(C)(C)C(=O)c1c(C(F)(F)F)n([O-])c2cc(Cl)c(Cl)cc2[n+]1=O | 1.46 | 2.77 µM | 0.538 | 1 µM | 1.04 | – | 0.188 | 0.446 µM | 0.437 | 0.987 µM | 1.47 µM | 2.78 µM | 0.192 | 0.546 µM | 0.389 µM | 0.782 µM | 0.244 | 0.644 µM | 1.6 µM | 3.12 µM
14 | O=C(CSC(c1ccccc1)c1ccccc1)N/N=C/c1ccccc1Cl | 14.7 | > 63.5 µM | 30.2 | > 100 µM | 31.1 | > 100 µM | – | 8.46 µM | 6.33 | 40.2 µM | 7.7 µM | 37.2 µM | > 63.2 | > 100 µM | 2.18 µM | 25.2 µM | 34.7 | > 100 µM | > 33 µM | > 68.2 µM
15 | O=C(N=Nc1c(Cl)c(O)c2ccccc2c1O)C(=O)Nc1cccc(C(F)(F)F)c1 | 3.33 | 16.2 µM | 2.82 | 10.9 µM | 1.97 | 5.09 µM | 3.35 | 10.2 µM | 2.93 | 8.88 µM | 1.98 µM | 15.6 µM | 6.44 | 28 µM | 1.92 µM | 7.12 µM | 3.24 | 15.6 µM | 6.78 µM | 28.2 µM
16 | CC(C)c1[nH]nc2c(NCc3ccc(-c4ccccn4)cc3)nc(SCCN)nc12 | 0.0191 | 0.0486 µM | 0.00326 | 0.147 µM | 0.00553 | 2.62 µM and 1.65 µM | 0.00469 | 0.0443 µM | 0.00505 | 0.169 µM and 0.102 µM | 0.0169 µM and 0.0222 µM | – | 0.00503 | 10.1 µM | 0.273 µM and 0.286 µM | 4.7 µM | 0.012 | – | 0.0404 µM and 0.0279 µM | 0.0985 µM
17 | O=C(NCc1ccco1)C1CCN(S(=O)(=O)c2ccc(Cl)cc2)CC1 | 80.5 | > 100 µM | 90.5 | > 100 µM | 36.3 | > 100 µM | > 100 | > 100 µM | 74.1 | > 100 µM | > 100 µM | > 100 µM | > 100 | > 100 µM | > 100 µM | > 100 µM | > 100 | > 100 µM | > 100 µM | > 100 µM
18 | COC(=O)c1c2c(c(C)[n+]([O-])c1C)C(=O)C(NCc1ccc(F)cc1)=CC2=O | 1.25 | 2.65 µM | 1.7 | 4.02 µM | 1.94 | 6.32 µM | 0.745 | 3.6 µM | 1.98 | 5.33 µM | 2.31 µM | 4.61 µM | 0.711 | > 100 µM | 1.73 µM | 4.04 µM | 1.17 | 3.2 µM | 2.16 µM | 4.87 µM
19 | Oc1ccc(Cl)cc1Sc1cc(Cl)ccc1O | 3.24 | 17.1 µM and 10.7 µM | 2.41 | 13.6 µM and 9.17 µM | 2.63 | 24 µM and 8.42 µM | 3.19 | 37.3 µM and 7.52 µM | 3.77 | > 100 µM and 24.7 µM | 0.421 µM | 9.71 µM and 3.43 µM | 3.27 | 33 µM and 12.6 µM | 2.72 µM | 23.1 µM and 8.27 µM | 4.02 | 39.6 µM and 13.8 µM | 4.09 µM | 41.9 µM and 19.2 µM
20 | C=C1C(=O)O[C@H]2[C@H]1CC/C(COC(=O)CCCCCCCC(=O)OC/C1=C/CC[C@@]3(C)O[C@H]3[C@H]3OC(=O)C(=C)[C@@H]3CC1)=C\CC[C@@]1(C)O[C@@H]21 | 2.45 | 6.51 µM | 1.97 | 3.92 µM | 1.48 | 2.95 µM | 1.04 | 4.87 µM | 0.791 | 11.4 µM | 2.16 µM | 5.07 µM | 2.02 | 4.23 µM | 1.85 µM | 5.51 µM | 1.46 | 3.24 µM | 2.63 µM | 6.97 µM
21 | C=C1C(=O)O[C@@H]2CC(CO)=C([C@@H](C)CCCO)[C@@H](OC(=O)/C(C)=C\C)[C@H]12 | – | 47.8 µM | – | 15.3 µM | – | 24.3 µM | – | 4.86 µM | – | 33.4 µM | – | 56.7 µM | – | 26.6 µM | – | 39.8 µM | – | 44.5 µM | – | > 62.8 µM
22 | COc1cc2c3cc1Oc1c(OC)c(OC)cc4c1[C@@H](Cc1ccc(O)c(c1)Oc1ccc(cc1)C[C@@H]3N(C)CC2)N(C)CC4 | – | 30.5 µM | – | 20.3 µM | – | 34.6 µM | – | 26.4 µM | – | 34.2 µM | – | 24.7 µM | – | 24.1 µM | – | 38.1 µM | – | 33.8 µM | – | 44.8 µM
